In patent publication US11136314B2, “Forms of afatinib dimaleate” (Johnson Matthey Public Limited Company, priority 2017, dated 2021):

Assay: Solid form stability under exposure to water / humidity
Format: physicochemical

completely converts to a hydrated species (40° C., 75% RH)	stable under exposure to water vapor under ambient conditions (about 25° C., >90% RH)	stable at about 40° C., 75% RH (about 40° C., 75% RH)	stability under exposure to water (exposure to water)	Compound	stability compared with afatinib dimaleate Form A (40° C., 75% RH)
≤ 11 days				CN(C)C/C=C/C(=O)Nc1cc2c(Nc3ccc(F)c(Cl)c3)ncnc2cc1O[C@H]1CCOC1.O=C(O)/C=C\C(=O)O.O=C(O)/C=C\C(=O)O [Afatinib dimaleate Form A, afatinib dimaleate]	
	about 3 days	over 19 days	stable under exposure to water	CN(C)C/C=C/C(=O)Nc1cc2c(Nc3ccc(F)c(Cl)c3)ncnc2cc1O[C@H]1CCOC1.O=C(O)/C=C\C(=O)O.O=C(O)/C=C\C(=O)O [Form Z, afatinib dimaleate]	more stable than afatinib dimaleate Form A
